Measured values taken from patent US20190350995A1, “THERAPEUTIC COMPOSITION DERIVED FROM ANTHOSTEMA SENEGALENSE” (LABORATOIRE MICHEL IDERNE, priority 2016, published 2019).
≈ marks a conversion by molar mass, not a printed value. Where two headings read alike, the source gives them in different places. Each block holds one compound with its values, some of them ahead of it.

What was measured:
HIV type 2 (strain ROD) = test: In vitro anti-viral replication test (method of E De Clercq, MTT) against HIV type 2 (strain ROD) in infected MT-4 cells; type: cell-based, HIV-2; settings: for biological (inhibitory) activity against HIV-2, in words: in vitro, "significant" = CC50≥45 μg/mL and selectivity index ≥50; for HIV-2 SI: selectivity index, ratio CC50/EC50
Method: (§1) The anti-viral replication efficiency of the molecules of the chemical composition of the invention was tested in vitro against the replication of the viruses HIV type 1 (strain MO and HIV type 2 (strain ROD) in the infected MT-4 cells.
(§2) More specifically, the antiretroviral activity of the molecules was tested by effectively carrying out the method of E De Clercq in a microplate.
(§3) This method consists of producing a cell culture of MT-4 in a microplate, containing as cell culture medium: the medium developed by the Roswell Park Memorial Institute (referred to as “RPMI 1640”), comprising of foetal calf serum, glutamine, sodium bicarbonate, and gentamicin as bacterial inhibitor.
The molecules of the chemical composition of the invention are added at different concentrations into the cell growth medium. […] The MT4 cells placed in the presence of the molecules to be tested are referred to as “treated cells”.
(§4) In each cell growth well, a defined amount of HIV-1 or HIV-2 is added in order to obtain the same concentration of virus in each well.
(§5) The cells placed in the presence of the HIV are referred to as “infected cells”.
(§6) Five days after the start of the process of infecting the MT4 cells with HIV-1 or HIV-2 in the presence of the molecules to be tested at different concentrations, a count is taken of the number of living cells by means of an MTT (tetrazolium salt) colorimetric assay by measuring the optical density at 540 nm.
(§7) As negative controls, use is made of cells without HIV 1 or HIV 2, referred to as “non-infected cells”, as well as of cells without the molecules to be tested referred to as “untreated cells”.
(§8) Thus, succinctly stated, the method of E De Clercq provides the means to obtain a density measurement at 540 nm for: • the cells infected with HIV-1 or HIV-2, treated with the molecules of the composition of the invention; • the cells not infected with HIV, treated with the molecules of the composition of the invention; • the cells infected with HIV-1 or HIV-2, not treated with the molecules of the composition of the invention; • the cells not infected with HIV, not treated with the molecules of the composition of the invention.
(§9) In particular, the effectiveness of the molecules of the composition of the invention was tested: • by measurement and calculation of the (median) 50% inhibitory concentration (IC50); • by measurement and calculation of the 50% cytotoxic concentration (CC50); • by measurement and calculation of the 50% effective concentration dose (EC50); and • by measurement and calculation of the selectivity index (SI), of the fractions containing the said molecules in the presence of the two strains of HIV.
(§10) The IC50 is the concentration of the molecule that makes it possible to decrease by 50% the viral proliferation of the negative control in vitro for a given time period, that is to say of the HIV without substance, only in its growth culture medium.
(§11) The EC50 is calculated using the following formula:
[(ODT)HIV^+]−[(ODC)HIV^+]/[(ODT)HIV^−]−[(ODC)HIV^−]×100
Where: • (ODT)HIV^+ represents the optical density measurement at 540 nm, 5 days after infection, for the cells infected with HIV and treated with the composition of the invention, that is to say in the presence of molecules of the composition of the invention; • (ODC) HIV^+ represents the optical density measurement at 540 nm, 5 days after infection, for the cells infected with HIV in the absence of the molecules of the composition of the invention; • (ODT) HIV^− represents the optical density measurement at 540 nm, 5 days after infection, for the cells not infected with HIV and treated with the composition of the invention, that is to say in the presence of the molecules of the composition of the invention; i(ODC) HIV^− represents the optical density measurement at 540 nm, 5 days after infection, for the cells not infected with HIV in the absence of the molecules of the composition of the invention.
The selectivity index represents the ratio CC50/EC50. […]

HIV type 1 = test: In vitro anti-viral replication test (method of E De Clercq, MTT) against HIV type 1 in infected MT-4 cells; type: cell-based, HIV-1; settings: for biological (inhibitory) activity against HIV-1, in words: in vitro, "significant" = CC50≥45 μg/mL and selectivity index ≥50; for HIV-1 SI: selectivity index, ratio CC50/EC50
Method: as §1, §2, §3
(§12) The molecules of the chemical composition of the invention are added at different concentrations into the cell growth medium. Each concentration of molecules to be tested is prepared in triplicate. The MT4 cells placed in the presence of the molecules to be tested are referred to as “treated cells”.
as §4, §5, §6, §7, §8, §9, §10, §11
[(ODT)HIV^+]−[(ODC)HIV^+]/[(ODT)HIV^−]−[(ODC)HIV^−]×100 […]

HIV-1 or HIV-2 = test: In vitro anti-HIV test of fractions and isolated compounds, virus type not separated in the statement; type: cell-based
Method: The anti-HIV activity was tested in vitro according to the method of Clerq E on each of the abovementioned fractions AsC4.1, AsC4.2, AsC4.3, AsC4.4, AsC4.5, AsC4.6, AsC4.7 and AsC4.8.
More than ten different compounds were obtained for all of the different mobile phases used. Each compound was individually tested against HIV-1 and HIV-2 according to the in vitro method mentioned above.

MT-4 cells = test: 50% cytotoxic concentration in MT-4 cells (MTT); type: cell-based; settings: for HIV-1 CC 50: HIV-1, average over duplicates; for HIV-2 CC 50: HIV-2, average over duplicates; for CC50: Homo sapiens
Method: as §3, §12, §6, §7, §8, §9
The CC50 is the concentration of active molecules that makes it possible to decrease by 50% the […]. In other words, it is the concentration of active molecules that makes it possible to decrease by 50% the viability of cells.

[1] = "significant" = CC50≥45 μg/mL and selectivity index ≥50
[2] = infected MT-4 cells, 5 days after infection, MTT, average over duplicates

Compound: CC(=O)OC1CCC2(C)C3CCC4C(=CC(=O)C5C(C)(C)CCCC45C)C3(C)CCC2C1(C)C (centres unmarked) [molecule A]
- biological (inhibitory) activity against HIV-2, in words (HIV type 2 (strain ROD)): at least two times greater
- biological (inhibitory) activity against HIV-1, in words (HIV type 1): at least two times greater
- biological activity against HIV (HIV-1 or HIV-2), in words (HIV-1 or HIV-2; [1]): significant biological activity
- biological activity against HIV (HIV-1 or HIV-2), in words (HIV-1 or HIV-2; "significant" = CC50≥45 μg/mL and selectivity index ≥50, listed as AsC4.5.1.1): “significant” biological activity

Compound: CC1(C)CC[C@]2(C(=O)O)CC=C3[C@]4(C)CCC5C(C)(C)[C@@H](OC(=O)c6ccccc6)[C@H](O)C[C@]5(C)C4CC[C@@]3(C)C2C1 (some centres unmarked) [molecule B]
- biological (inhibitory) activity against HIV-2, in words (HIV type 2 (strain ROD)): at least two times greater
- biological (inhibitory) activity against HIV-1, in words (HIV type 1): at least two times greater
- biological activity against HIV (HIV-1 or HIV-2), in words (HIV-1 or HIV-2; [1]): significant biological activity
- biological activity against HIV (HIV-1 or HIV-2), in words (HIV-1 or HIV-2; "significant" = CC50≥45 μg/mL and selectivity index ≥50, listed as AsC4.5.7.2): “significant” biological activity

Compound: O=c1[nH]cnc2c1ncn2[C@H]1CC[C@@H](CO)O1 [Dideoxyinosine, dideoxyinosine]
- HIV-1 CC 50 (MT-4 cells): 0.68 µg/mL
- HIV-2 CC 50 (MT-4 cells): 1.22 µg/mL
- HIV-2 IC 50 (HIV type 2 (strain ROD); [2]): 3.78 µg/mL
- HIV-2 SI (HIV type 2 (strain ROD)): >50
- HIV-1 IC 50 (HIV type 1; [2]): 2.09 µg/mL
- HIV-1 SI (HIV type 1): >50

- IC50 (HIV type 2 (strain ROD); Human immunodeficiency virus 2, MT4, 120 h, infected MT-4 cells, 5 days after infection, MTT, average over duplicates, read-out: HIV-2 IC 50): > 4 µg/mL
- IC50 (HIV type 1; Human immunodeficiency virus 1, MT4, 120 h, infected MT-4 cells, 5 days after infection, MTT, average over duplicates, read-out: HIV-1 IC 50): 0.05 µg/mL (≈ 0.188 µM)
Compound: Cc1ccnc2c1NC(=O)c1cccnc1N2C1CC1 [Nevirapine, nevirapine]
- CC50 (MT-4 cells; MT4, HIV-1, average over duplicates, read-out: HIV-1 CC 50): 0.011 µg/mL (≈ 0.0413 µM)
- CC50 (MT-4 cells; MT4, HIV-2, average over duplicates, read-out: HIV-2 CC 50): > 4 µg/mL
- HIV-2 SI (HIV type 2 (strain ROD)): <1
- HIV-1 SI (HIV type 1): >4

Compound: Nc1ccn([C@H]2CC[C@@H](CO)O2)c(=O)n1 [Dideoxycitidine, dideoxycitidine]
- HIV-1 CC 50 (MT-4 cells): 0.12 µg/mL
- HIV-2 CC 50 (MT-4 cells): 0.11 µg/mL
- HIV-2 IC 50 (HIV type 2 (strain ROD); [2]): 0.19 µg/mL
- HIV-2 SI (HIV type 2 (strain ROD)): >20
- HIV-1 IC 50 (HIV type 1; [2]): 0.16 µg/mL
- HIV-1 SI (HIV type 1): >20
